Source: US20240374563A1, “ANTICHOLINERGIC COMPOUNDS FOR USE IN TREATING NEUROMUSCULAR DISORDERS” (UNIVERSITY OF MONTRÉAL, priority 2022, published 2024)

Experiments:
SOD1^G37R mice [1] = assay: Motor neuron counts in lumbar spinal cord sections (ChAT/NeuN); type: in vivo, mouse; settings: P520, treatment from disease onset, p<0.0001
Text: We prepared lumbar spinal cords sections as previously described[6] and labeled MNs with the cholinergic neuronal marker ChAT and the general neuronal nuclei marker NeuN to identify α-MNs. Neurons positive for both markers located in the ventral horn were counted as α-MNs.
Motor neuron counts: Mouse were perfused transcardially and lumbar spinal cord were subsequently dissected, cryoprotected in a 30% sucrose solution and frozen using dry ice. Floating lumbar spinal cord cryosections were processed as previously described. Spinal cords cryosections were double stained against Choline Acetyl-Transferase (ChAT: 1:100; Goat; Millipore, Canada; AB144P) and the neuronal marker Neuronal Nuclei (NeuN; 1:300; Mouse IgG1; Millipore; MAB377). ChAT and NeuN positive cells were identified as α-MNs[4]. A minimin of twenty lumbar spinal cord sections per animal were analysed and double-positive cells from each ventral horns were quantified.

SOD1^G37R mice [2] = assay: EDL muscle fatigue protocol and 30 min recovery; type: in vivo, mouse
Description: In addition to the force generated, a muscle is also characterised by its resistance to fatigue. For instance, fast-twitch muscles composed of a majority of fast fatigable motor units like the EDL, is their great fatigability. In ALS, alteration at the type of innervation (from fast to slow twitch) and in the properties of muscles themselves alter the fatigue properties, rendering them more resistant. […] We used a fatigue stimulation protocol, followed by a 30 min recovery period (FIG. 6A). […] However, we found no difference in the rate of fatigue of muscle contractions generated by motor nerve stimulation (FIG. 6C; Dari N=8, Placebo N=8; p>0.05, Repeated two-way ANOVA). […] There was no difference in the rate of recovery following the fatigue protocol between the darifenacin-treated mice and the placebo-treated ones (FIG. 6B-C; Dari N=8, Placebo N=8; p>0.05, Repeated two-way ANOVA).
Finally, we investigated the fatigue properties of the EDL muscle following darifenacin pre-onset treatment. As mentioned earlier, fast-twitch muscles like the EDL are very strong but are normally highly fatigable. However, in ALS, a gradual resistance to fatigue of fast-twitch muscles have been unraveled, following progression of disease pathogenesis. We used a fatigue stimulation protocol (180 trains at 120 Hz-300 ms), followed by a 30 min recovery period (see FIG. 6A) to investigate treatment impact on EDL fatigue properties. […] The strong resistance of the muscle to fatigue probably reflected the high rate of denervation of the EDL muscle at the symptomatic stage in both darifenacin-and placebo-treated mice.
Muscle fatigue: The fatigue protocol is illustrated in FIG. 6A. The fatigue protocol was adapted to each muscle owing to the differences in their intrinsic properties. For the EDL, fatigue was tested using a bout of 180 nerve stimulations for a duration of 300 ms, elicited at a frequency of 120 Hz. The rest period between each stimulation was 700 ms, for a total protocol duration of 3 min. Muscular stimulations were super-imposed to nerve stimulations every 10 stimulations (18 simultaneous nerve-muscle stimulations), to evaluate muscular reserve. The fatigue protocol for the SOL consisted of a bout of 300 nerve stimulations for 500 ms at 50 Hz, with a rest period of 600 ms between stimulations, for a total duration of 5 min 30. Muscular stimulations were super-imposed to nerve stimulations every 10 stimulations (30 simultaneous nerve-muscle stimulations).
Each fatigue protocol was followed by a 30 min recovery period during which muscular and neuromuscular contractile force were measured at the following latencies (after the end of the fatigue protocol): 5 s, 10 s, 15 s, 30 s, 45 sec, 1 min, 1.5 min, 2 min, 2.5 min, 5 min, 10 min, 20 min and 30 min.

SOD1^G37R mice [3] = assay: EDL muscle weight; type: in vivo, mouse
SOD1^G37R mice [4] = assay: Grip strength; type: in vivo, mouse; settings: from P490 until the end of the trial; treatment from disease onset; N=19
Text: Mice of the darifenacin and placebo groups began the trial with a similar grip strength force.
(§1) The pre-clinial trial design was made according to guidelines for preclinical animal research in ALS/MND [35]. Male mice from the SOD1^G37R background and their WT littermates were included in the preclinical study. Mice were randomly assigned to the experimental or the placebo group. Treatment, behavior monitoring, experiments and results analysis were done blindly. Standard ALS behavioral measurements were performed biweekly to measure disease progression in the various study groups. This includes rotarod test. grip strength measurements, weight measurements and tail suspension test to assess hindlimb extension reflex.

SOD1^G37R mice [5] = assay: Body weight loss; type: in vivo, mouse; settings: at P520; treatment from disease onset; N=21
Text: To this end, we monitored the changes in the body weight of the animals, a metric that is directly related to the progression of the disease and survival whereby animals present an important gradual body weight loss after symptoms onset.
as §1

SOD1^G37R mice [6] = assay: Rotarod acceleration protocol; type: in vivo, mouse
Description: Third, the motor performance, balance and coordination, were measured using a standard acceleration protocol on the Rotarod (FIG. 8A), which is known to reveal ALS motor deficits as disease progresses.
Motor coordination, strength and balance were assessed using a rotarod (TSE Rotarod, TSE Systems Gmbh, Germany). Animals were placed onto a rotating wheel at a starting speed of 4 rpm, increasing to 40 rpm in 300 seconds. Mice had two attempts per session to remain on the rotarod during the acceleration protocol, and the longest latency to fall was counted.

SOD1^G37R mice [7] = assay: Gait analysis (footprint test); type: in vivo, mouse; settings: P520; treatment from disease onset; N=8
Description: Finally, we aimed to better characterize the walking pattern of the mice following treatment. We measured the gait by performing a footprint analysis using inked paws.
Gait was assessed using the footprint test. Paws were inked with a nontoxic paint (fore-paws in blue and hind-paws in red), mice were placed on a restricted pathway on a white paper sheet (30 cm long, 6 cm wide) and free to walk along the walkway. Five footsteps from each run were measured for the following parameters (cm): (1) stride length ([…]) and (2) Step width (distance between left and right paws). The mean value of each set of outcomes was calculated for statistical analysis.

SOD1^G37R mice [8] = assay: Survival cohort; settings: continuous treatment from disease onset (P450) until end stage; N=10
[9] = pre-onset treatment P400 until P520

SMILES: NC(=O)C(c1ccccc1)(c1ccccc1)[C@@H]1CCN(CCc2ccc3c(c2)CCO3)C1 [darifenacin]
- α-MN count per ventral horn vs placebo (SOD1^G37R mice [1]): significantly higher
- rate of fatigue generated by muscle stimulation vs placebo (SOD1^G37R mice [2]; [9]): no difference
- rate of recovery following the fatigue protocol vs placebo (SOD1^G37R mice [2]; [9]): comparable
- rate of fatigue of contractions generated by motor nerve stimulation vs placebo (SOD1^G37R mice [2]; treatment from disease onset): no difference
- rate of recovery following the fatigue protocol vs placebo (SOD1^G37R mice [2]; treatment from disease onset): no difference
- EDL fatigue on direct muscle stimulation (SOD1^G37R mice [2]; treatment from disease onset, p<0.01 vs placebo): more typical for this type of fast twitch muscle
- EDL muscle weight (SOD1^G37R mice [3]; pre-onset treatment P400 until P520, N=4, n=7): 9.1 ± 0.55 mg
- EDL muscle weight (SOD1^G37R mice [3]; treatment from disease onset, N=8, n=16): 11.79 ± 0.34 mg
- grip strength vs placebo (SOD1^G37R mice [4]): performed better
- body weight loss (SOD1^G37R mice [5]): 20.0±1.9%
- Rotarod latency to fall vs placebo (SOD1^G37R mice [6]; at P520 and P525, treatment from disease onset, N=22): significantly higher score
- share of group still able to stand for several seconds on the rotating rod (SOD1^G37R mice [6]; late symptomatic stage, data not shown): more than half
- step width (SOD1^G37R mice [7]): 2.62±0.16 cm
- stride length (SOD1^G37R mice [7]): 4.13±0.36 cm
- median lifespan (SOD1^G37R mice [8]): 551 days
